One series deals with Candida albicans. Put plainly: Antimicrobial activity against Candida albicans ATCC 10231 by agar dilution method. In kind it is functional, organism-based. (In agar dilution, organisms are placed on agar that contains the substance at set levels.)
For a further series, the system named is HT-29. Put plainly: Cytotoxicity against human HT29 cells after 7 days by MTT assay. The note with it: HT-29, 168 h, read-out: ED50 (the source's name). In kind it is functional. On the technique in general: Tetrazolium dyes change colour on reduction, which living cells bring about.
Series [1] deals with Amaranthus hypochondriacus. Put plainly: Phytogrowth-inhibitory activity against Amaranthus hypochondriacus assessed as inhibition of seedling growth petri dish bioassay. In kind it is functional, organism-based.
The test system of the next series is A549. As to the kind of experiment: Cytotoxicity against human A549 cells after 7 days by MTT assay. In kind it is functional. The note with it: A549, 168 h, read-out: ED50 (the source's name).
A further series concerns Echinochloa crus-galli. Put plainly: Phytogrowth-inhibitory activity against Echinochloa crus-galli assessed as inhibition of seedling germination by petri dish bioassay. In kind it is functional, organism-based.
Series [2] is described as follows: Toxicity in brine shrimp. In kind it is organism-based. Conditions: artemia, in vivo.
Another series deals with Aspergillus niger. Put plainly: Antimicrobial activity against Aspergillus niger ATCC 16888 by agar dilution method. In kind it is functional, organism-based.
The next series has as its system MCF7. As to the kind of experiment: Cytotoxicity against human MCF7 cells after 7 days by MTT assay. The note with it: MCF7, 168 h, read-out: ED50 (the source's name). In kind it is functional.
Series [3] relates to Trichophyton mentagrophytes. Put plainly: Antimicrobial activity against Trichophyton mentagrophytes ATCC 9129 by agar dilution method. In kind it is functional.

We go through 9 compounds from ChEMBL document CHEMBL1158240, “Phytogrowth-inhibitory and antifungal constituents of Helianthella quinquenervis” (J Nat Prod, 1996).

In brackets after ≈: the same amount, converted by molar mass. Activity calls are given as the source filed them. The calls are words filed in the database; no cut-off is given here.

In general, IC50 refers to the concentration that gives 50% inhibition. Broadly, the LC50 is the concentration that kills 50% of the test population. What is called MIC is the lowest concentration found to suppress growth.

For `COC(C)(C)/C=C/c1cc(C(C)=O)ccc1O[C@@H]1O[C@H](CO)[C@@H](O)[C@H](O)[C@H]1O`, the outcome with Candida albicans and in the series on Aspergillus niger was inactive. In addition, the EC50 in the series with HT-29 is 61 µg/mL (≈ 154 µM); in the series with A549, 6 µg/mL (≈ 15.1 µM); in the series with MCF7, 44 µg/mL (≈ 111 µM). The IC50 amounted to 148 µg/mL (≈ 373 µM) in [1] and 231 µg/mL (≈ 583 µM) with Echinochloa crus-galli. The same compound displayed an LC50 in series [2] greater than 1000 µg/mL.

For the compound `C=C(C)[C@H]1Cc2cc(C(C)=O)c(OC)cc2O1`, the outcome in the series on Candida albicans and in the series on Aspergillus niger was inactive. Further, the EC50 in the series with HT-29 was found to be 16 µg/mL (≈ 68.9 µM); in the series with A549 it was 1 µg/mL (≈ 4.31 µM); with MCF7, 33 µg/mL (≈ 142 µM). For the same compound, the IC50 in series [1] worked out at 11 µg/mL (≈ 47.4 µM); in the series on Echinochloa crus-galli, 68 µg/mL (≈ 293 µM). For the same compound, the LC50 in [2] was found to be 8 µg/mL (≈ 34.4 µM).

Consider `C=C(C)[C@@H]1Oc2cc(O)c(C(C)=O)cc2[C@H]1OC`, for which the outcome in the series with Candida albicans and with Aspergillus niger was inactive. The EC50 worked out at 16 µg/mL (≈ 64.4 µM) with HT-29, 31 µg/mL (≈ 125 µM) in the series on A549 and 34 µg/mL (≈ 137 µM) in the series on MCF7. For the same compound, the IC50 in series [1] came to 61 µg/mL (≈ 246 µM); in the series with Echinochloa crus-galli, 323 µg/mL (≈ 1300 µM). Moreover, the LC50 in series [2] came out at 68 µg/mL (≈ 274 µM).

Take `CC(=O)c1cc2c(cc1O)OC(C)(C)C=C2` [DEMETHYLENCECALIN]: the outcome with Candida albicans and in the series with Aspergillus niger was inactive. The figures for the EC50 in the series on HT-29, with A549 and with MCF7 were 2 µg/mL (≈ 9.16 µM), 10 µg/mL (≈ 45.8 µM) and 2 µg/mL (≈ 9.16 µM), respectively. Moreover, the IC50 in [1] worked out at 27 µg/mL (≈ 124 µM); in the series with Echinochloa crus-galli, 79 µg/mL (≈ 362 µM). For the same compound, the MIC in [3] came out at 58 µg/mL (≈ 266 µM). In series [2], the LC50 turned out to be 31 µg/mL (≈ 142 µM).

Consider `COc1cccc2c1C(=O)c1c(O)c3c(c(O)c1C2=O)C[C@@](O)(C(=O)CO)C[C@@H]3O[C@H]1C[C@H](N)[C@H](O)[C@H](C)O1` [DOXORUBICIN], for which the EC50 with HT-29 turned out to be 0.04 µg/mL (≈ 0.0736 µM); with A549, 0.002 µg/mL (≈ 0.00368 µM); with MCF7 it was 0.02 µg/mL (≈ 0.0368 µM).

On to `COc1cc2c(cc1C(C)=O)C=CC(C)(C)O2` [ENCECALIN], for which the result with Candida albicans and in the series on Aspergillus niger was inactive. For the same compound, the EC50 is 18 µg/mL (≈ 77.5 µM) in the series with HT-29, 25 µg/mL (≈ 108 µM) with A549 and 29 µg/mL (≈ 125 µM) in the series with MCF7. In addition, the results for the IC50 (in [1]; with Echinochloa crus-galli) were 7 µg/mL (≈ 30.1 µM) and 6 µg/mL (≈ 25.8 µM), respectively. This compound also displayed an LC50 in [2] of 31 µg/mL (≈ 133 µM).

`C=C(C)c1cc2cc(C(C)=O)c(O)cc2o1` [EUPARIN]: the result in the series with Candida albicans and in the series on Aspergillus niger was inactive. Also, the EC50 with HT-29 was found to be 6 µg/mL (≈ 27.7 µM); in the series on A549, 22 µg/mL (≈ 102 µM); in the series with MCF7, 6 µg/mL (≈ 27.7 µM). Besides, the IC50 in [1] came to 111 µg/mL (≈ 513 µM); in the series with Echinochloa crus-galli it was 252 µg/mL (≈ 1170 µM). In addition, in series [3], the minimal inhibitory concentration (MIC) amounted to 29 µg/mL (≈ 134 µM). For the same compound, the LC50 in series [2] was found to be 44 µg/mL (≈ 203 µM).

The compound `COC1=CC(=O)C[C@@H](C)[C@]12Oc1c(Cl)c(OC)cc(OC)c1C2=O` [GRISEOFULVIN] came in with an MIC in series [3] of 2.6 µg/mL (≈ 7.37 µM).

For `CCCCC[C@H]1CCCCCCCCCC(=O)O[C@H]2[C@H](O)[C@@H](CO)O[C@@H](O[C@H]3[C@H](O1)O[C@H](C)[C@H](O)[C@@H]3O)[C@@H]2O[C@@H]1O[C@@H](C)[C@H](OC(=O)[C@@H](C)CC)[C@@H](O[C@@H]2O[C@@H](C)[C@H](O)[C@@H](O)[C@H]2O)[C@H]1OC(=O)[C@@H](C)CC` [TRICOLORIN A], the IC50 came out at 11 µg/mL (≈ 10.8 µM) in series [1] and 68 µg/mL (≈ 66.5 µM) in the series with Echinochloa crus-galli.
